According to patent US7579488B2 (Eli Lilly and Company, priority 2003, dated 2009):
Several values for one entry are separate records, joined by “and”; a condition that tells them apart may be missing. Equal values may be shown once.

Assays:
Assay type in all cases: cell-based
rat osteocalcin promoter = experiment: OCN (osteocalcin) promoter assay; conditions: RG-15 (ROS 17/2.8) cells
Experimental: 3. The OCN (Osteocalcin) Promoter Assay
The OCN Promoter Assay is an indicator and marker for osteoporosis. […] Preferred assay results are less than 50 nM.
(3) Materials and Method for The OCN Promoter Assay:
The activation of osteocalcin by VDR ligands was evaluated in a rat osteoblast-like cell line RG-15 (ROS 17/2.8) stably expressing rat osteocalcin promoter fused with luciferase reporter gene. […] Confluent RG-15 cells maintained in DMEM/F-12 medium (3:1) containing 5% FBS, 300 μg/ml G418 and at 37° C. under 5% CO2/95% air atmosphere were trypsinized (0.25% trypsin) and plated into white opaque 96-well cell culture plates (25000 cells/well). After 24 hr, cells (in DMEM/F-12 medium+2% FBS) were treated with various concentrations of compounds, dissolved in DMSO. The final DMSO concentration remained at 0.01% (v/v). After 48 hr treatment, the medium was removed, cells were lysed with 50 μl of lysis buffer (From Luciferase reporter assay system, Roche Diagnostics, Indianapolis, Ind.) and assayed for luciferase activity using the Luciferase Reporter Gene Assay kit from Boehringer Mannheim as per manufacturer's specifications.

KERtr cells = experiment: Keratinocyte proliferation assay; conditions: Homo sapiens, 72 h, BrdU incorporation, several values separated by /, read-out: Kera. Prolif. IC50
Experimental: 5. The Keratinocyte Proliferation Assay
This Assay is indicative for the treatment of psoriasis.
(5) The Keratinocyte Proliferation Assay:
KERtr cells (Human skin keratinocyte transformed with a retrovirus vector, obtained from ATCC) were plated in 96-well flat-bottomed plates (3000 cells/well) in 100 μl keratinocyte serum free medium supplemented with bovine pituitary extract in the absence of EGF (Life Technologies, Rockville, Md.) and incubated at 37° C. for two days. The cells were treated with various concentrations of VDR ligands (ten-fold serial dilution from 10,000 nM to 0.1 nM in triplicate), dissolved in 100 μl keratinocyte serum free medium supplemented with bovine pituitary extract in the absence of EGF and incubated at 37° C. for 72 hr. […] Potency values (IC50) values were determined as the concentration (nM) of compound that elicited a half-maximal response.

RXR-VDR heterodimer = target: T1, RXR-VDR heterodimer (Homo sapiens, UniProt P11473); experiment: RXR-VDR heterodimerization assay (SaOS-2 cells); conditions: Gal4-RXR-DEF/VP16-VDR-LBD luciferase reporter, several values in a cell separated by /
T1 construct: Add the Gal4-RXR-DEF and VP16-VDR-LBD; expressed in transfected cells; host or cells: SaOS-2 cells
T1 sequence (P11473 127-423 limits assumed): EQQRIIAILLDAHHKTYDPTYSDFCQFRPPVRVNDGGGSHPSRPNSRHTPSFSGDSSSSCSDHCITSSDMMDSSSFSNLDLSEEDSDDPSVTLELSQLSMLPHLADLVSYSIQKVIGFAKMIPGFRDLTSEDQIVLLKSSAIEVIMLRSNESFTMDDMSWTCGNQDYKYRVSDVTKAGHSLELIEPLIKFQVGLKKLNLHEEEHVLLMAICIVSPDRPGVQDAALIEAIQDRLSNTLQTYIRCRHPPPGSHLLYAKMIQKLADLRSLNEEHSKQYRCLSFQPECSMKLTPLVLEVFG
T1 sequence (P19793 201-462 partner limits assumed): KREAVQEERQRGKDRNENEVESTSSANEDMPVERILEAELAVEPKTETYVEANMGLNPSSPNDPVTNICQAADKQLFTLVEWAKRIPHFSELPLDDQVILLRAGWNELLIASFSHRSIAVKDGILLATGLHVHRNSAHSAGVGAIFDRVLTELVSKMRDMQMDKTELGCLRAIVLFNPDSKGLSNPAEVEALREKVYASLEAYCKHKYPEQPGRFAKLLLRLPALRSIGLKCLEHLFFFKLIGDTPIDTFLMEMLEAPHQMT
Experimental: 1. The RXR-VDR Heterodimer Assay:
This assay provides the VDR activity of a test compound.
(1) Materials and Method for RXR-VDR Heterodimerization Assay:
Luciferase Assay Reagent: • Use Steady-Glo Luciferase Reagent from Promega (Cat #E2550) Consists of: a. E2533 Assay Substrate, lyopholized product and b. E2543 Assay Buffer. • Thaw at room temperature • Store Cell Harvesting Aspirate media from culture flask, rinse cells with HBSS and aspirate. Add trypsin and incubate. When cells appear detached, resuspend cells in growth media. Transfer into a new flask with fresh growth media for passaging the cells. Plate well plates and two extra plates A. Cell Count Mix the cell suspension using pipette Use Hematocytometer to count the cells Load cell suspension onto the hemocytometer chamber Count cells. […] In sterile flask add cell suspension to plating media. Mix. Add cells/well. Place the cells in the incubator. Cells should be about 75% confluent prior to transfection. DAY 2: Transfection Step 1: DNA and Media Add plain DMEM media to tubes for mixing the DNA Add the Reporter gene pFR-LUC Add the Gal4-RXR-DEF and VP16-VDR-LBD Step 2: FuGENE and Media Prepare plain DMEM media in a ubes for mixing FuGENE Add FuGENE 6 Transfection Reagent Incubate Step 3: FuGENE, DNA and Media Complex Add FuGENE Media complex from step 2 to DNA Media complex from step 1 Incubate Step 4: FuGENE, DNA and Media Complex to-well plate Add FuGENE-DNA-Media complex from step 3 to each plate Incubate. […] Day 4: Luciferase Assay Read the plates after drug treatment Remove part of media from all the wells and leave remainder Add Steady-Glo Luciferase Reagent mixture/wells Incubate Count each well using a Luminescence counter, Top Count NXT by Packard
Set a delay between plates to reduce the background.

[1] = Rattus norvegicus, 48 h, 48 hr treatment, luciferase, several values separated by /
[2] = 48 hr treatment, luciferase, several values separated by /

Row | Compound | EC50 (rat osteocalcin promoter; [1]) [nM] | IC50 (KERtr cells) [nM] | EC50 (RXR-VDR heterodimer) | EC50 (rat osteocalcin promoter; Rattus norvegicus, comparison compounds) [nM] | EC50 (rat osteocalcin promoter; [2]) [nM]
1 | CCC(CC)(c1ccc(OCC(=O)C(C)(C)C)c(C)c1)c1cc2cc(C(=O)N(C)CC(=O)O)ccc2o1 | 7 | 10 | 9 nM | – | –
2 | Cc1cc(C2(c3ccc(OCC(=O)C(C)(C)C)c(C)c3)CCCCC2)ccc1OCC(=O)C(C)(C)C [CC, 1-(4-{1-[4-(3,3-Dimethyl-2-oxo-butoxy)-3-methyl-phenyl]-cyclohexyl}-2-methyl-phenoxy)-3,3-dimethyl-butan-2-one, reference compound] | – | – | – | 2680 | –
3 | CCC(CC)(c1ccc(OCC2(C(C)(C)C)OCCO2)c(C)c1)c1cc2cc(C(=O)O)ccc2o1 [Ex 15, 2-{1-[4-(2-tert-Butyl-[1,3]dioxolan-2-ylmethoxy)-3-methyl-phenyl]-1-ethyl-propyl}-benzofuran-5-carboxylic acid] | 634 | – | 1350 nM and 627 nM | – | –
4 | CCC(CC)(c1ccc(OCC2(C(C)(C)C)OCCO2)c(C)c1)c1cc2cc(C(=O)NCC(=O)O)ccc2o1 [Ex 16, [(2-{1-[4-(2-tert-butyl-[1,3]dioxolan-2-ylmethoxy)-3-methyl-phenyl]-1-ethyl-propyl}-benzofuran-5-carbonyl)-amino]-acetic acid] | 27 | – | 570 nM and 71 nM | – | 44
5 | CCC(CC)(c1ccc(OCC(O)C(C)(C)C)c(C)c1)c1cc(C)c2oc(C(=O)O)cc2c1 (stereo not drawn) [Ex 22, 5-{1-Ethyl-1-[4-(2-hydroxy-3,3-dimethyl-butoxy)-3-methyl-phenyl]-propyl}-7-methyl-benzofuran-2-carboxylic acid] | 1 | 109 | 27 nM | – | –
6 | CCC(CC)(c1ccc(OCC2(C(C)(C)C)OCCO2)c(C)c1)c1cc(C)c2oc(C(=O)O)cc2c1 [Ex 23, 5-{1-[4-(2-tert-Butyl-[1,3]dioxolan-2-ylmethoxy)-3-methyl-phenyl]-1-ethylpropyl}-7-methyl-benzofuran-2-carboxylic acid] | 127 | – | 660 nM and 320 nM | – | 88
7 | CCC(CC)(c1ccc(OCC2(C(C)(C)C)OCCO2)c(C)c1)c1cc(C)c2oc(C(=O)NCC(=O)O)cc2c1 [Ex 24, [(5-{1-[4-(2-tert-butyl-[1,3]dioxolan-2-ylmethoxy)-3-methyl-phenyl]-1-ethyl-propyl}-7-methyl-benzofuran-2-carbonyl)-amino]-acetic acid] | 431 | – | 851 nM | – | –
8 | CCC(CC)(c1ccc(OCC2(C(C)(C)C)OCCO2)c(C)c1)c1cc(C)c2oc(C(=O)N(C)C)cc2c1 [Ex 25, 5-{1-[4-(2-tert-Butyl-[1,3]dioxolan-2-ylmethoxy)-3-methyl-phenyl]-1-ethyl-propyl}-7-methyl-benzofuran-2-carboxylic acid dimethylamide] | 1000 | 1000 | 67 nM | – | –
9 | CCC(CC)(c1ccc(OCC(=O)C(C)(C)C)c(C)c1)c1cc(C)c2oc(C(=O)N(C)C)cc2c1 [Ex 26, 5-{1-[4-(3,3-Dimethyl-2-oxo-butoxy)-3-methyl-phenyl]-1-ethyl-propyl}-7-methyl-benzofuran-2-carboxylic acid dimethylamide] | 17 | – | – | – | –
10 | CCC(CC)(c1ccc(OCC(O)C(C)(C)C)c(C)c1)c1cc(C)c2oc(C(=O)N(C)C)cc2c1 (stereo not drawn) [Ex 27, 5-{1-Ethyl-1-[4-(2-hydroxy-3,3-dimethyl-butoxy)-3-methyl-phenyl]-propyl}-7-methyl-benzofuran-2-carboxylic acid dimethylamide] | 9 | > 1000 | 154 nM and 51 nM | – | 17
11 | CCC(CC)(c1ccc(OCC(O)C(C)(C)C)c(C)c1)c1cc(C)c2oc(C(=O)NCC(=O)O)cc2c1 (stereo not drawn) [Ex 29, [(5-{1-Ethyl-1-[4-(2-hydroxy-3,3-dimethyl-butoxy)-3-methyl-phenyl]-propyl}-7-methyl-benzofuran-2-carbonyl)-amino]-acetic acid] | 3 | 414 | 71 nM | – | –
12 | CCC(CC)(c1ccc(OCC(=O)C(C)(C)C)c(C)c1)c1ccc2oc(C(=O)N(C)C)c(C)c2c1 [Ex 36, 5-{1-[4-(3,3-dimethyl-2-oxo-butoxy)-3-methyl-phenyl]-1-ethyl-propyl}-3-methyl-benzofuran-2-carboxylic acid dimethylamide] | 210 | – | 536 nM | – | –
13 | CCC(CC)(c1ccc(OCC(=O)C(C)(C)C)c(C)c1)c1cc2ccc(OS(C)(=O)=O)cc2o1 [Ex 40, methanesulfonic acid 2-{1-[4-(3,3-dimethyl-2-oxo-butoxy)-3-methyl-phenyl]-1-ethyl-propyl}-benzofuran-6-yl ester] | – | – | 80 nM | – | –
14 | CCC(CC)(c1ccc(OCC(=O)C(C)(C)C)c(C)c1)c1cc2cc(C(=O)OC)ccc2o1 [Ex. 1] | 1 | 71 | – | – | –
15 | CCC(CC)(c1ccc(OCC(O)C(C)(C)C)c(C)c1)c1cc2cc(C(=O)N(C)C)ccc2o1 (stereo not drawn) [Ex. 6, 2-{1-Ethyl-1-[4-(2-hydroxy-3,3-dimethyl-butoxy)-3-methyl-phenyl]-propyl}-benzofuran-5-carboxylic acid dimethylamide] | 68 | – | 410 nM and 79 nM | – | 47
16 | CCC(CC)(c1ccc(OCC(=O)C(C)(C)C)c(C)c1)c1cc2cc(C(=O)NC(C)(C)C(=O)O)ccc2o1 [Ex. 10, 2-[(2-{1-[4-(3,3-Dimethyl-2-oxo-butoxy)-3-methyl-phenyl]-1-ethyl-propyl}-benzofuran-5-carbonyl)-amino]-2-methyl-propionic acid] | 275 | 215 | 235 nM | – | –
